According to PubChem BioAssay (NCI):
Several values for one entry are separate records, joined by “and”; a condition that tells them apart may be missing. Equal entries are not always repeated.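 Tested at 5 concentrations; 48 h exposure; 96-well plates; endpoints linearly interpolated, else capped at highest concentration. The concentration for 50% growth inhibition is given as GI50. TGI marks complete inhibition of growth.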

Key:
Experiment in all cases: inhibition of tumour cell growth, NCI panel, 48 h
[1] = test system: HCT-15 colon
[2] = test system: SF-295 CNS
[3] = test system: MDA-MB-435
[4] = test system: NCI/ADR-RES ovarian
[5] = test system: M14 melanoma
[6] = test system: HOP-62 NSCLC
[7] = test system: K-562 leukemia
[8] = test system: IGROV1 ovarian
[9] = test system: SR leukemia
[10] = test system: SK-MEL-2 melanoma

| SMILES | GI50 [1] [µM] | TGI [1] | GI50 [2] [µM] | TGI [2] | GI50 [3] [µM] | TGI [3] [µM] | GI50 [4] [µM] | TGI [4] [µM] | GI50 [5] [µM] | TGI [5] | GI50 [6] [µM] | TGI [6] | GI50 [7] [µM] | TGI [7] [µM] | GI50 [8] [µM] | TGI [8] | GI50 [9] [µM] | TGI [9] [µM] | GI50 [10] [µM] | TGI [10] |
| --- | --- | --- | --- | --- | --- | --- | --- | --- | --- | --- | --- | --- | --- | --- | --- | --- | --- | --- | --- | --- |
| CC(C)(O)CNc1nc(Nc2ccnc(C(F)(F)F)c2)nc(-c2cccc(C(F)(F)F)n2)n1 | 19.7 | 79.8 µM | 17.1 | 35.3 µM | 15.8 | 39.9 | 17.1 | 53.8 | 16.1 | 34.6 µM | 21.4 | 52.8 µM | 29.4 | > 100 | 28.6 | 74.5 µM | 18.3 | 90.9 | – | – |
| CC(C)(Br)C(=O)C(Br)Br | 4.88 | > 21.9 µM and 9.57 µM | 21.1 | 32.8 µM and 63.3 µM | – | 9.98 | – | 12.6 | 5.42 | 7.07 µM and 9.69 µM | 59.7 | > 56.5 µM and 104 µM | 2.28 | – | 3.66 | 21.8 µM and 8.09 µM | – | – | 5.75 | 28.8 µM and 10.8 µM |
| N#CCN1CCn2c1nsc2=S | > 100 | > 100 µM | > 100 | > 100 µM | > 100 | > 100 | – | – | > 100 | > 100 µM | > 100 | > 100 µM | 48.2 | > 100 | > 100 | > 100 µM | 1.09 | 24.1 | > 100 | > 100 µM |
| C/C(=C\c1cnc(C)s1)[C@@H]1C[C@@H]2O[C@@H]2CCC[C@H](C)[C@H](O)[C@@H](C)C(=O)C(C)(C)[C@@H](O)CC(=O)O1 | < 0.01 | > 100 µM | 0.0102 | > 100 µM | – | – | 0.0228 | > 100 | – | – | < 0.0127 | > 100 µM | < 0.01 | > 100 | 0.0103 | > 100 µM | < 0.01 | > 100 | < 0.0146 | > 100 µM |
| Cc1ccc(-c2nc([P+](c3ccccc3)(c3ccccc3)c3ccccc3)c(S(=O)(=O)c3ccc(C)cc3)o2)cc1 | 1.44 | 3.23 µM | 2.91 | 10.7 µM | 1.56 | 3.04 | 2.94 | 18 | 1.51 | 3.27 µM | 1.47 | 4.56 µM | 0.312 | 3.22 | 1.61 | 3.15 µM | – | – | 2.17 | 4.41 µM |
| C(=N/N(Cc1ccccc1)Cc1ccccc1)/c1ccccc1 | > 100 | > 100 µM | 44.5 | > 100 µM | 77.3 | > 100 | > 100 | > 100 | 90.1 | > 100 µM | > 100 | > 100 µM | – | – | > 100 | > 100 µM | – | – | 25 | 72.6 µM |
| CCCCCO/N=C\c1c2c(O)c3c(O)c(C)c4c(c3c1O)C(=O)C(C)(O/C=C\C(OC)C(C)C(OC(C)=O)C(C)C(O)C(C)C(O)C(C)/C=C\C=C(\C)C(=O)N2)O4 (configuration not stated) | 1.79 | 3.31 µM | 1.87 | 4.3 µM | 1.81 | 3.68 | 1.79 | 3.68 | 1.62 | 3.01 µM | 1.65 | 3.04 µM | 3.57 | > 100 | – | – | 2.88 | 7.34 | – | – |
